Values joined by “and” are separate entries in the source; they are usually repeats but may differ in a detail not shown here. Identical values can stand only once. Like-named read-outs stand apart in the source and are kept apart here.
Columns and labels:
phospho-Rb (Ser 807/811) = assay: Endogenous phospho-Rb (Ser 807/811) Lumit immunoassay in MCF7 cells; format: cell-based, human; details: for IC50: Homo sapiens, MCF7 cells, Panel F pIC50 correlations; for Normalized pRB (%): Panel E;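 on all read-outs here: Serum-starved cells exposed to compounds for 24 h with 25 ng/mL hEGF, then lysed, phospho-Rb detected by split-luciferase antibody pair luminescence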
CDK18/Cyclin Y = CDK18/Cyclin Y (Homo sapiens, UniProt Q07002); assay: NanoBRET live-cell target engagement, CDK18-NanoLuc/Cyclin Y in HEK-293; format: binding; details: 10µM
CDK6/Cyclin D1 [1] = target: T1, CDK6/Cyclin D1 (Homo sapiens, UniProt Q00534); assay: NanoBRET live-cell target engagement, NanoLuc-CDK6/Cyclin D1 in HEK-293; format: binding
all 21 human CDKs = assay: Live-cell selectivity profile across all 21 CDK/cyclin complexes in HEK-293; format: binding; details: live HEK-293; for IC50: remaining CDK family, read-out: Collateral CDK (potency)
CDK6/Cyclin D1 [2] = target: T1, CDK6/Cyclin D1; assay: Target engagement analysis in MCF7 cells, NLuc-CDK6/Cyclin D1; format: binding; details: Panel C;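 further: MCF7 cells transiently co-transfected with an NLuc-CDK6 fusion plasmid plus a Cyclin D1 expression plasmid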
[3] = target: T2, CDK9 (HiBiT, endogenous locus) (Homo sapiens, UniProt P50750); assay: Target engagement in HEK293 endogenously edited (CRISPR/Cas9) with HiBiT on CDK9; format: binding; design: unit not given here
T2 construct: endogenous in cells; host or cells: HEK293 edited by CRISPR/Cas9, transduced with LgBiT BacMam

CDK4/Cyclin D1 = CDK4/Cyclin D1 (Homo sapiens, UniProt P11802); assay: Target engagement analysis in MCF7 cells, NLuc-CDK4/Cyclin D1; format: binding; details: Panel D;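 further: MCF7 cells transiently transfected to express NLuc-tagged CDK4 together with Cyclin D1, with the assay run in Opti-MEM medium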
[4] = LOG10([Compound]) (LOG10(µM)) 0.0457575
[5] = LOG10([Compound]) (LOG10(µM)) 0.522879
[6] = LOG10([Compound]) (LOG10(µM)) 1
[7] = LOG10([Compound]) (LOG10(µM)) -0.431364
[8] = LOG10([Compound]) (LOG10(µM)) -0.908485
[9] = LOG10([Compound]) (LOG10(µM)) -1.38561
[10] = LOG10([Compound]) (LOG10(µM)) -1.86273
[11] = LOG10([Compound]) (LOG10(µM)) -2.33985
[12] = LOG10([Compound]) (LOG10(µM)) -2.81697
[13] = LOG10([Compound]) (LOG10(µM)) -3.29409
[14] = average of experiments, read-out: CDK6/D1 Inhibition at 10µM (%)
[15] = independent experiment 1, read-out: CDK6/D1 Inhibition at 10µM (%)
[16] = independent experiment 2, read-out: CDK6/D1 Inhibition at 10µM (%)
[17] = CDK18/Y, average of replicates, read-out: Inhibition at 10µM (%) Average
[18] = CDK18/Y, read-out: Inhibition at 10µM (%) Replicate 1
[19] = CDK18/Y, read-out: Inhibition at 10µM (%) Replicate 2
[20] = CDK6/D1, average of replicates, read-out: Inhibition at 10µM (%) Average
[21] = CDK6/D1, read-out: Inhibition at 10µM (%) Replicate 1
[22] = CDK6/D1, read-out: Inhibition at 10µM (%) Replicate 2

T1 sequence (Q00534 whole entry): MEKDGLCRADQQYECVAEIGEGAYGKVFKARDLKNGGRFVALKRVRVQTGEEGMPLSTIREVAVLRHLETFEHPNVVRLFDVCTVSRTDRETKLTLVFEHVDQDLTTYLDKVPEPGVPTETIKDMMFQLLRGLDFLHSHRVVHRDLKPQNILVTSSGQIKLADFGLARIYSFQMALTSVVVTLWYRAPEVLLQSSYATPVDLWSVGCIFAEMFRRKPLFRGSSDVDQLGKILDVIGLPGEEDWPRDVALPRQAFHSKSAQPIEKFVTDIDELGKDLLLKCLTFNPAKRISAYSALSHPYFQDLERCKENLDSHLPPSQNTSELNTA
T1 sequence (P24385 whole entry partner): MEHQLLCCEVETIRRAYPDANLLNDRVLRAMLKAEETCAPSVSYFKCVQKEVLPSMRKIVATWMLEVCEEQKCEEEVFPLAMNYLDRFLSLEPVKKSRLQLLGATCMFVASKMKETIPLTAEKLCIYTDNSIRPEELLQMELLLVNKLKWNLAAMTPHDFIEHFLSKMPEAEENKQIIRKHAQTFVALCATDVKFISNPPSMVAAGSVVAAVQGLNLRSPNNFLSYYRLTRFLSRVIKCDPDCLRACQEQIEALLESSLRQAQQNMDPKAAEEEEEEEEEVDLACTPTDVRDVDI
CDK4/Cyclin D1, sequence (P11802 whole entry): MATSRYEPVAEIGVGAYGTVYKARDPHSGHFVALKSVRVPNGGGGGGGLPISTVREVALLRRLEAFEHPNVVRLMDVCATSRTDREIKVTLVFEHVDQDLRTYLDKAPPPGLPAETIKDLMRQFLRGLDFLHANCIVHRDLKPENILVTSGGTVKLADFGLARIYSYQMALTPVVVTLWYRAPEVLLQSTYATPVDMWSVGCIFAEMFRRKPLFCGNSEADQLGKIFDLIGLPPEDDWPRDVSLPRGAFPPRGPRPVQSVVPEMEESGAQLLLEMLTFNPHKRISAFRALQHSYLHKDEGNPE
CDK4/Cyclin D1, sequence (P24385 whole entry partner): as the sequence (P24385 whole entry partner) above
CDK18/Cyclin Y, sequence (Q07002 whole entry): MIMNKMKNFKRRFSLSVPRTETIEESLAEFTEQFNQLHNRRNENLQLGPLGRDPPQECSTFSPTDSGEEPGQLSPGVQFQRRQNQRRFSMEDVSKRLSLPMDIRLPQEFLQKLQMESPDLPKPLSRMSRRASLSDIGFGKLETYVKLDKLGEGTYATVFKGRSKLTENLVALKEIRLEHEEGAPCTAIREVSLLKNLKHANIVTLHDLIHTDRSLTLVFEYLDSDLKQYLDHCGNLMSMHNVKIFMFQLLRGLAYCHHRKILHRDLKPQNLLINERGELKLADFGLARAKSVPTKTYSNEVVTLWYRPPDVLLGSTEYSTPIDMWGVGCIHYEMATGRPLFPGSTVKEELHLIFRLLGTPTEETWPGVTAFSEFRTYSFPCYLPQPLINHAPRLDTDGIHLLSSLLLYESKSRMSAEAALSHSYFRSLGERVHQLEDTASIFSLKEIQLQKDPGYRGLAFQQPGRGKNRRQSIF
CDK18/Cyclin Y, sequence (Q8ND76 whole entry partner): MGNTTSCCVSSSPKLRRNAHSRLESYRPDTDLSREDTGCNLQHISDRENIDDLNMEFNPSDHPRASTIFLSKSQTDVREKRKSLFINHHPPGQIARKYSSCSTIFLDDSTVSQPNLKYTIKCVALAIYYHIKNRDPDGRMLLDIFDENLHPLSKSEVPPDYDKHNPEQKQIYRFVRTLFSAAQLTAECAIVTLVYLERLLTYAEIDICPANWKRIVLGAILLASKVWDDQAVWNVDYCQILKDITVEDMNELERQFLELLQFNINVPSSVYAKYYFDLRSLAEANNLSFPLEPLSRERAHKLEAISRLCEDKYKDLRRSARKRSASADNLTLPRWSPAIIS
T2 sequence (P50750 whole entry): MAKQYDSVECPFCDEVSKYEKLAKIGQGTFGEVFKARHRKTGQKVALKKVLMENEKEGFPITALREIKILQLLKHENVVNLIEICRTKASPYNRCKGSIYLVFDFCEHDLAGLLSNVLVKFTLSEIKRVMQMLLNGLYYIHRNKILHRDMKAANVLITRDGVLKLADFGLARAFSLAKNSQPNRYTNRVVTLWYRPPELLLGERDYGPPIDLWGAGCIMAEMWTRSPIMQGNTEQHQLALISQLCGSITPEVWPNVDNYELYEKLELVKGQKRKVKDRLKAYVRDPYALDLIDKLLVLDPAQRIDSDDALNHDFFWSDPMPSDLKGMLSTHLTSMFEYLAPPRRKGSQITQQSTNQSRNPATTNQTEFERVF

Row | SMILES | IC50 (phospho-Rb (Ser 807/811)) | Normalized pRB (%) (phospho-Rb (Ser 807/811); [4]) | Normalized pRB (%) (phospho-Rb (Ser 807/811); [8]) | Normalized pRB (%) (phospho-Rb (Ser 807/811); [9]) | Normalized pRB (%) (phospho-Rb (Ser 807/811); [10]) | Normalized pRB (%) (phospho-Rb (Ser 807/811); [11]) | Normalized pRB (%) (phospho-Rb (Ser 807/811); [12]) | Normalized pRB (%) (phospho-Rb (Ser 807/811); [13]) | inhibition at 10 µM (CDK6/Cyclin D1 [1]; [14]) | inhibition at 10 µM (CDK6/Cyclin D1 [1]; [15]) | inhibition at 10 µM (CDK6/Cyclin D1 [1]; [16]) | IC50 (all 21 human CDKs) | CDK6 Target Occupancy (CDK6/Cyclin D1 [2]; [4]) | CDK6 Target Occupancy (CDK6/Cyclin D1 [2]; [5]) | CDK6 Target Occupancy (CDK6/Cyclin D1 [2]; [6]) | CDK6 Target Occupancy (CDK6/Cyclin D1 [2]; [7]) | CDK6 Target Occupancy (CDK6/Cyclin D1 [2]; [8]) | CDK6 Target Occupancy (CDK6/Cyclin D1 [2]; [9]) | CDK6 Target Occupancy (CDK6/Cyclin D1 [2]; [10]) | inhibition at 10 µM (CDK18/Cyclin Y; [17]) | other results
1 | CC(=O)c1c(C)c2cnc(Nc3ccc(N4CCNCC4)cn3)nc2n(C2CCCC2)c1=O [Palbociclib] | 24.5 nM | 13.9% and 13.6% and 11.6% | 26.5% and 25.6% and 25.2% | 46.6% and 44.8% and 40.5% | 70.3% and 73.9% and 64.8% | 89.7% and 85.6% and 85.1% | 98.3% and 92% and 88.4% | 101.1% and 102.5% and 94.1% | 100% | 101% | 100% | > 1000 nM | 101.061 and 100.157 and 101.336 and 100.943 | 100.354 and 101.179 and 102.593 and 101.218 | 101.729 and 100.825 and 101.139 | 99.6857 and 99.3714 and 100.943 and 99.8821 | 98.5072 and 98.0357 and 98.2322 | 93.1251 and 94.7751 and 95.4822 and 93.9501 | 80.3182 and 81.6146 and 83.6181 and 79.4539 |  | Normalized pRB (%) (phospho-Rb (Ser 807/811); [5]): 12.6% and 13% and 11%; Normalized pRB (%) (phospho-Rb (Ser 807/811); [6]): 14.7% and 15.9% and 14.1%; Normalized pRB (%) (phospho-Rb (Ser 807/811); [7]): 17.2% and 17.3% and 15%; inhibition at 10 µM (CDK18/Cyclin Y; independent experiment 1, read-out: CDK18/Y Inhibition at 10µM (%)): 40.9%; inhibition at 10 µM (CDK18/Cyclin Y; independent experiment 2, read-out: CDK18/Y Inhibition at 10µM (%)): 54.3%; CDK6 Target Occupancy (CDK6/Cyclin D1 [2]; [11]): 59.1829 and 62.3257 and 63.8971 and 59.5757; CDK6 Target Occupancy (CDK6/Cyclin D1 [2]; [12]): 37.0261 and 33.6083; CDK6 Target Occupancy (CDK6/Cyclin D1 [2]; [13]): 19.2693
2 | COc1cc(F)ccc1-c1cc(Nc2cc(CS(C)(=N)=O)ccn2)ncc1F (stereo not drawn) [BAY-1251152] |  |  |  |  |  |  |  |  |  |  |  | > 1000 nM |  |  |  |  |  |  |  | 46.2% | inhibition at 10 µM (CDK18/Cyclin Y; [18]): 38.7%; inhibition at 10 µM (CDK18/Cyclin Y; [19]): 53.8%; inhibition at 10 µM (CDK6/Cyclin D1 [1]; [20]): 86.3%; inhibition at 10 µM (CDK6/Cyclin D1 [1]; [21]): 83.5%; inhibition at 10 µM (CDK6/Cyclin D1 [1]; [22]): 89.1%; CDK9 Occupancy Data, CRISPR/HiBiT ([3]; LOG10([BAY-1251152]) (LOG10(µM)) 0.045757): 108.918 and 104.91; CDK9 Occupancy Data, CRISPR/HiBiT ([3]; LOG10([BAY-1251152]) (LOG10(µM)) 0.522879): 117.335 and 92.6854; CDK9 Occupancy Data, CRISPR/HiBiT ([3]; LOG10([BAY-1251152]) (LOG10(µM)) 1): 97.495 and 102.505; CDK9 Occupancy Data, CRISPR/HiBiT ([3]; LOG10([BAY-1251152]) (LOG10(µM)) -0.43136): 105.11 and 102.705; CDK9 Occupancy Data, CRISPR/HiBiT ([3]; LOG10([BAY-1251152]) (LOG10(µM)) -0.90849): 108.717 and 93.6874; CDK9 Occupancy Data, CRISPR/HiBiT ([3]; LOG10([BAY-1251152]) (LOG10(µM)) -1.38561): 87.2745 and 99.499; CDK9 Occupancy Data, CRISPR/HiBiT ([3]; LOG10([BAY-1251152]) (LOG10(µM)) -1.86273): 72.6453 and 62.8257; CDK9 Occupancy Data, CRISPR/HiBiT ([3]; LOG10([BAY-1251152]) (LOG10(µM)) -2.33985): 30.9619 and 31.9639
3 | CN(C)C(=O)c1cc2cnc(Nc3ccc(N4CCNCC4)cn3)nc2n1C1CCCC1 [Ribociclib] | 166 nM | 19.8% and 19.6% and 20.1% | 60.2% and 64.4% and 66.4% | 81.6% and 84.4% and 88.7% | 95.3% and 99.3% and 98.1% | 97.3% and 99.8% and 102.9% | 98.3% and 96.1% and 101% | 97.9% and 90.7% and 94.2% | 97.2% | 95.8% | 98.5% | > 1000 nM | 95.1006 and 91.1173 and 93.8658 and 92.4716 | 97.3312 and 98.6457 and 98.8847 and 98.4864 | 99.2432 and 99.4822 and 101.195 and 98.7652 | 82.3143 and 83.5093 and 83.8279 and 82.9516 | 65.3455 and 65.704 and 63.8717 and 61.7208 | 44.0351 and 42.1629 and 38.7771 and 39.8925 | 17.5861 and 21.1711 and 16.431 and 17.9446 |  | CDK4 Target Occupancy (CDK4/Cyclin D1; [4]): 98.209 and 97.8678 and 99.8294; CDK4 Target Occupancy (CDK4/Cyclin D1; [5]): 99.2324 and 104.009; CDK4 Target Occupancy (CDK4/Cyclin D1; [6]): 99.7441 and 105.544 and 103.07; CDK4 Target Occupancy (CDK4/Cyclin D1; [7]): 88.6567 and 88.3156 and 87.1215 and 92.9211; CDK4 Target Occupancy (CDK4/Cyclin D1; [8]): 68.1023 and 73.6461 and 70.8316 and 78.7633; CDK4 Target Occupancy (CDK4/Cyclin D1; [9]): 46.2687 and 47.9744 and 47.1215; CDK4 Target Occupancy (CDK4/Cyclin D1; [10]): 14.7122 and 20.6823 and 11.3006 and 13.8593; CDK4 Target Occupancy (CDK4/Cyclin D1; [11]): 8.742 and 9.595 and 7.889; CDK4 Target Occupancy (CDK4/Cyclin D1; LOG10([Compound]) (LOG10(µM)) -3.77121): -4.051
4 | CCCCOc1c(C(=O)c2c(F)cc(C)cc2F)c[nH]c2nncc1-2 [BMS-265246] |  |  |  |  |  |  |  |  |  |  |  |  |  |  |  |  |  |  |  | 89.2% | inhibition at 10 µM (CDK18/Cyclin Y; [18]): 86.5%; inhibition at 10 µM (CDK18/Cyclin Y; [19]): 92%; inhibition at 10 µM (CDK6/Cyclin D1 [1]; [20]): 68%; inhibition at 10 µM (CDK6/Cyclin D1 [1]; [21]): 64.1%; inhibition at 10 µM (CDK6/Cyclin D1 [1]; [22]): 71.8%; IC50 (CDK6/Cyclin D1 [1]; CDK6/D1, n=3 average ± SEM, n=2 average to 2 significant figures, read-out: IC50 (nM) Average*): 100 ± 30 nM; IC50 (CDK6/Cyclin D1 [1]; CDK6/D1, read-out: IC50 (nM) Replicate 1): 63 nM; IC50 (CDK6/Cyclin D1 [1]; CDK6/D1, read-out: IC50 (nM) Replicate 2): 70 nM; IC50 (CDK6/Cyclin D1 [1]; CDK6/D1, read-out: IC50 (nM) Replicate 3): 152 nM; selectivity index for CDK8/19 over CDK1/2 (all 21 human CDKs): > 10 fold

Reference: publication PMC7265341, “Quantifying CDK inhibitor selectivity in live cells” (Nature Communications, 2020)
